Source: ChEMBL document CHEMBL1131999, “Design, synthesis and testing of amino-bicycloaryl based orally bioavailable thrombin inhibitors” (Bioorg Med Chem Lett, 1999)

Experiments:
Serine protease 1 = Serine protease 1 (Homo sapiens, UniProt P07477); experiment: In vitro trypsin inhibition
Prothrombin = Prothrombin (Homo sapiens, UniProt P00734); experiment: In vitro thrombin inhibition
Caco-2 = conditions: Homo sapiens
Description: The compound was evaluated in vitro for the Caco-2 cell permeability.

[1] = Oral bioavailability in dog; format: ADME, organism-based, Canis lupus familiaris; conditions: in vivo

Chain of Serine protease 1 (P07477 whole entry): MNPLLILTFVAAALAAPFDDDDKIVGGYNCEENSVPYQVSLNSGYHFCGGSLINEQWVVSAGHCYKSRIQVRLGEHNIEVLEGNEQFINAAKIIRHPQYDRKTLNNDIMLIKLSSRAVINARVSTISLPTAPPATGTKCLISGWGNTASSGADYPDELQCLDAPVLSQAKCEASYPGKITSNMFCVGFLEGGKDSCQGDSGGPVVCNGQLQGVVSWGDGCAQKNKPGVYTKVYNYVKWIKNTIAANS

Compound	IC50 (Serine protease 1)	IC50 (Prothrombin)	Papp (Caco-2)	bioavailability [1]
CC1CCN(C(=O)C(Cc2cccc(C(=N)N)c2)NS(=O)(=O)c2ccc3ccccc3c2)CC1 (stereo not given)	1.9 µM	0.64 µM	–	–
COc1ccc2ccc(S(=O)(=O)NC(Cc3ccc4ccnc(N)c4c3)C(=O)N3CCC(C)CC3)cc2c1 (stereo not given)	8 µM	0.63 µM	–	–
COc1ccc2ccc(S(=O)(=O)NC(Cc3cc4c(N)nccc4s3)C(=O)N3CCC(C(C)=O)CC3)cc2c1 (stereo not given)	2 µM	1.4 µM	2.3 ×10⁻⁶ cm/s	–
CC1CCN(C(=O)C(Cc2cc3c(N)nccc3s2)NS(=O)(=O)c2ccc3ccccc3c2)CC1 (stereo not given)	205 µM	209 µM	11.7 ×10⁻⁶ cm/s	–
COc1ccc2ccc(S(=O)(=O)NC(Cc3cc4c(N)nccc4s3)C(=O)N3CCC(C)CC3)cc2c1 (stereo not given)	4 µM	–	12.1 ×10⁻⁶ cm/s	36%
COc1ccc2ccc(S(=O)(=O)NC(Cc3cc4c(N)nccc4s3)C(=O)N3CCN(C)CC3)cc2c1 (stereo not given)	13 µM	6 µM	–	–
COc1ccc2ccc(S(=O)(=O)NC(Cc3ccc4c(N)nccc4c3)C(=O)N3CCC(C)CC3)cc2c1 (stereo not given)	27 µM	48 µM	7.5 ×10⁻⁶ cm/s	–
COc1cc2ccc(S(=O)(=O)NC(Cc3cc4c(N)nccc4s3)C(=O)N3CCC(C)CC3)cc2cc1OC (stereo not given)	4 µM	5 µM	–	–
COc1ccc2ccc(S(=O)(=O)NC(Cc3cc4c(N)nccc4o3)C(=O)N3CCC(C)CC3)cc2c1 (stereo not given)	6 µM	1.58 µM	0.9 ×10⁻⁶ cm/s	–
COc1ccc2ccc(S(=O)(=O)NC(Cc3cc4c(N)nccc4s3)C(=O)N3CCN(S(C)(=O)=O)CC3)cc2c1 (stereo not given)	18 µM	0.56 µM	–	–
